For one assay, the target named is T1, KRAS_G12D and cRAF (Homo sapiens, UniProt P01116, G12D).
T1 construct: purchased
Description: Inhibition of KRAS_G12D/cRAF binding (Cisbio binding kit, 665/615 ratio), Effect Embodiment B. The note with it: read-out: GTP-KRAS-G12D:CRAF IC50. Summed up:
(§1)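 Compounds are tested over eleven threefold dilution steps in duplicate, with final DMSO at 1%.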

For another assay, the target named is T2, KRAS_WT and SOS1 (Homo sapiens, UniProt P01116).
T2 construct: purchased
Briefly: Inhibition of KRAS_WT/SOS1 binding (Cisbio binding kit, 665/615 ratio), Effect Embodiment C. The following applies: read-out: GTP-KRAS-WT:SOS1 IC50. Summed up:
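Compounds tested as 3-fold, 11-point dilutions in duplicate at 1% DMSO final against the KRAS_WT/SOS1 binding system. IC50 derived by nonlinear regression fit.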

A further assay addresses T3, KRAS-G12D and SOS1 (Homo sapiens, UniProt P01116, G12D).
T3 construct: purchased
Description: Inhibition of KRAS-G12D/SOS1 binding (Cisbio binding kit, 665/615 ratio), Effect Embodiment A. The note with it: read-out: GTP-KRAS-G12D:SOS1 IC50. The method, boiled down: as §1

Molecules are shown by their SMILES. Counter-ions that a name gives are not always drawn.

Broadly, the IC50 is the concentration needed to halve the response being measured.

T2 sequence (P01116 1-188 isoform P01116-2): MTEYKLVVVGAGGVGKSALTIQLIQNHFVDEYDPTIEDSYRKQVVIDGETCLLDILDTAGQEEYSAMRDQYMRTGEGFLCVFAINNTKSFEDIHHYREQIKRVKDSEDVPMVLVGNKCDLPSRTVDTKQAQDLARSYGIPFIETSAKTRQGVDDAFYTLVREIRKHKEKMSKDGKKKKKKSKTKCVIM
T3 sequence (P01116 1-188 isoform P01116-2 G12D): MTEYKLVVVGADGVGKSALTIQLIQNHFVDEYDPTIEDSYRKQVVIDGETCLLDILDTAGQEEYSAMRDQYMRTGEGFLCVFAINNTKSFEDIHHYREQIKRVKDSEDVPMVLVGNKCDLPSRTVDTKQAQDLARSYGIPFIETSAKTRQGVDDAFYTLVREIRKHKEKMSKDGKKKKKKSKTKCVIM
T1 sequence (P01116 1-188 isoform P01116-2 G12D): as above

As to `Oc1cc(-c2c(Cl)cc3c(N4CC5CCC(C4)N5)nc(OC[C@@H]4CCCN4C4CC4)nc3c2F)c2ccccc2c1` (single isomer, unassigned) [Compound 163, 4-((R or S)-4-((1R,5S)-3,8-diazabicyclo[3.2.1]octan-3-yl)-6-chloro-2-((S)-1-cyclopropylpyrrolidin-2-yl)methoxy)-8-fluoroquinazolin-7-yl)naphthalen-2-ol dihydrochloride], the IC50 on KRAS_G12D and cRAF was determined as 49.8 nM; on KRAS_WT and SOS1, 787 nM; at KRAS-G12D and SOS1, 18.6 nM.
In the same order, the values of `C[C@@H]1COC[C@@H](C)N1CCCOc1nc(N2C[C@H]3CC[C@@H](C2)N3)c2cc(Cl)c(-c3cc(O)cc4ccccc34)c(F)c2n1` (single isomer, unassigned) [Compound 164, (R or S)-4-(4-((1R,5S)-3,8-diazabicyclo[3.2.1]octan-3-yl)-6-chloro-2-(3-((3R,5R)-3,5-dimethylmorpholinyl)propoxy)-8-fluoroquinazolin-7-yl)naphthalen-2-ol dihydrochloride] are 115 nM, 2530 nM and 43.9 nM.
Regarding `Oc1cc(-c2c(Cl)cc3c(N4C[C@H]5CC[C@@H](C4)N5)nc(OCCCN4C[C@@H]5C[C@H]4CO5)nc3c2F)c2ccccc2c1` (single isomer, unassigned) [Compound 165, (R or S)-4-(2-(3-((1S,4S)-2-oxa-5-azabicyclo[2.2.1]heptan-5-yl)propoxy)-4-((1R,5S)-3,8-diazabicyclo[3.2.1]octan-3-yl)-6-chloro-8-fluoroquinazolin-7-yl)naphthalen-2-ol dihydrochloride], the IC50 at KRAS_G12D and cRAF was 85.4 nM; on KRAS_WT and SOS1, 1880 nM; at KRAS-G12D and SOS1, 27.8 nM.
Take `CO[C@@H]1C[C@@H](COc2nc(N3CC4CCC(C3)N4)c3cc(Cl)c(-c4cc(O)cc5ccccc45)c(F)c3n2)N(C)C1` (single isomer, unassigned) [Compound 166, (R or S)-4-(4-((1R,5S)-3,8-diazabicyclo[3.2.1]octan-3-yl)-6-chloro-8-fluoro-2-((2S,4R)-4-methoxy-1-methylpyrrolidin-2-yl)methoxy)quinazolin-7-yl)naphthalenol dihydrochloride]: the IC50 on KRAS_G12D and cRAF is 31.9 nM; at KRAS_WT and SOS1, 553 nM; at KRAS-G12D and SOS1 it was 25 nM.
Regarding `CN1CC2(CC2)C[C@H]1COc1nc(N2C[C@H]3CC[C@@H](C2)N3)c2cc(Cl)c(-c3cc(O)cc4ccccc34)c(F)c2n1` (single isomer, unassigned) [Compound 167, (R or S)-4-(4-((1R,5S)-3,8-diazabicyclo[3.2.1]octan-3-yl)-6-chloro-8-fluoro-2-(((S)-5-methyl-5-azaspiro[2.4]heptan-6-yl)methoxy)quinazolin-7-yl)naphthalen-2-ol dihydrochloride], the IC50 on KRAS_G12D and cRAF was found to be 19.5 nM; on KRAS_WT and SOS1 it was 248 nM; on KRAS-G12D and SOS1, 17.9 nM.
As to `CN1C[C@H](F)C[C@H]1COc1nc(N2CC3CCC(C2)N3)c2cc(Cl)c(-c3cc(O)cc4ccccc34)c(F)c2n1` (single isomer, unassigned) [Compound 168, (R or S)-4-(4-((1R,5S)-3,8-diazabicyclo[3.2.1]octan-3-yl)-6-chloro-8-fluoro-2-((2S,4R)-4-fluoro-1-methylpyrrolidin-2-yl)methoxy)quinazolin-7-yl)naphthalenol dihydrochloride], the IC50 stood at 22.4 nM at KRAS_G12D and cRAF; 458 nM at KRAS_WT and SOS1; 18.7 nM at KRAS-G12D and SOS1.
For the compound `Oc1cc(-c2c(Cl)cc3c(N4C[C@H]5CC[C@@H](C4)N5)nc(OCCCN4C[C@H]5C[C@@H]4CO5)nc3c2F)c2ccccc2c1` (single isomer, unassigned) [Compound 169, (R or S)-4-(2-(3-((1R,4R)-2-oxa-5-azabicyclo[2.2.1]heptan-5-yl)propoxy)-4-((1R,5S)-3,8-diazabicyclo[3.2.1]octan-3-yl)-6-chloro-8-fluoroquinazolin-7-yl)naphthalen-2-ol dihydrochloride], the IC50 stood at 71.3 nM at KRAS_G12D and cRAF; 1870 nM at KRAS_WT and SOS1; 39.2 nM on KRAS-G12D and SOS1.
As for `CN1CCC[C@H]1COc1nc(N2CC3CCC(C2)N3)c2cc(Cl)c(-c3cc(O)cc4ccccc34)c(F)c2n1` (single isomer, unassigned) [Compound 170, (R or S)-4-(4-((1R,5S)-3,8-diazabicyclo[3.2.1]octan-3-yl)-6-chloro-8-fluoro-2-((S)-1-methylpyrrolidin-2-yl)methoxy)quinazolin-7-yl)naphthalen-2-ol dihydrochloride], the IC50 came to 24.4 nM on KRAS_G12D and cRAF; 270 nM at KRAS_WT and SOS1; 12.8 nM at KRAS-G12D and SOS1.
Regarding `C[C@@H]1C[C@@H](COc2nc(N3CC4CCC(C3)N4)c3cc(Cl)c(-c4cc(O)cc5ccccc45)c(F)c3n2)N(C)C1` (single isomer, unassigned) [Compound 171, (R or S)-4-(4-((1R,5S)-3,8-diazabicyclo[3.2.1]octan-3-yl)-6-chloro-2-((2S,4R)-1.4-dimethylpyrrolidin-2-yl)methoxy)-8-fluoroquinazolin-7-yl)naphthalen-2-ol dihydrochloride], the IC50 at KRAS_G12D and cRAF is 60.4 nM; on KRAS_WT and SOS1, 395 nM; at KRAS-G12D and SOS1, 24.8 nM.
In the same order, the values of `Oc1cc(-c2c(Cl)cc3c(N4CC5CCC(C4)N5)nc(OCC4(CN5C6CCC5COC6)CCC4)nc3c2F)c2ccccc2c1` (single isomer, unassigned) [Compound 173, (4R or S)-4-(2-((1-((3-oxa-8-azabicyclo[3.2.1]octan-8-yl)methyl)cyclobutyl)methoxy)-4-((1R,5S)-3,8-diazabicyclo[3.2.1]octan-3-yl)-6-chloro-8-fluoroquinazolin-7-yl)naphthalen-2-ol dihydrochloride] are 37.9 nM, 251 nM and 14.8 nM.
Turning to `C[C@H]1COCCN1CCCOc1nc(N2C[C@H]3CC[C@@H](C2)N3)c2cc(Cl)c(-c3cc(O)cc4ccccc34)c(F)c2n1` (single isomer, unassigned) [Compound 174, (R or S)-4-(4-((1R,5S)-3,8-diazabicyclo[3.2.1]octan-3-yl)-6-chloro-8-fluoro-2-(3-((S)-3-methylmorpholinyl)propoxy)quinazolin-7-yl)naphthalen-2-ol diformate], the half-inhibitory concentration (IC50) worked out at 170 nM on KRAS_G12D and cRAF; 1820 nM on KRAS_WT and SOS1; 57.8 nM at KRAS-G12D and SOS1.
Take `C[C@@H]1COC[C@H](C)N1CCCOc1nc(N2CC3CCC(C2)N3)c2cc(Cl)c(-c3cc(O)cc4ccccc34)c(F)c2n1` (single isomer, unassigned) [Compound 175, (R or S)-4-(4-((1R,5S)-3,8-diazabicyclo[3.2.1]octan-3-yl)-6-chloro-2-(3-((3R,5S)-3,5-dimethylmorpholinyl)propoxy)-8-fluoroquinazolin-7-yl)naphthalen-2-ol formate]: the IC50 on KRAS_G12D and cRAF turned out to be 303 nM; at KRAS_WT and SOS1 it was 4300 nM; on KRAS-G12D and SOS1, 104 nM.
Take `Oc1cc(-c2c(Cl)cc3c(N4CC5CCC(C4)N5)nc(OC[C@@]45CCCN4C[C@H](F)C5)nc3c2F)c2ccccc2c1` (single isomer, unassigned) [Compound 176, 4-((R or S)-4-((1R,5S)-3,8-diazabicyclo[3.2.1]octan-3-yl)-6-chloro-8-fluoro-2-((2R,7aS)-2-fluorotetrahydro-1H-pyrrolin-7a(5H)-yl)methoxy)quinazolin-7-yl)naphthalenol formate]: the IC50 is 6.98 nM on KRAS_G12D and cRAF; 28 nM on KRAS_WT and SOS1; 13.6 nM at KRAS-G12D and SOS1.

The record behind these values is patent publication US20230365563A1, “QUINAZOLINE COMPOUND AND APPLICATION THEREOF” (SHANGHAI PHARMACEUTICALS HOLDING CO., LTD., priority 2020, published 2023).
